In series [1] the test system is PSMA+PIP and PSMA-flu tumors in a male SCID mouse. The conditions noted are these: 44.4 MBq (1.2 mCi) intravenously, imaged repeatedly over an eight day period.
In another series the target is T1, PSMA (Homo sapiens, UniProt Q04609).
T1 construct: endogenous in cells; host or cells: LNCaP cell lysate
The series is described as follows: fluorescence-based PSMA inhibition assay (NAAG hydrolysis, LNCaP cell lysates, Amplex Red). The series is classed as biochemical. Conditions: for Ki: PSMA inhibitory activity, Cheng-Prusoff conversion.

T1 sequence (Q04609 whole entry): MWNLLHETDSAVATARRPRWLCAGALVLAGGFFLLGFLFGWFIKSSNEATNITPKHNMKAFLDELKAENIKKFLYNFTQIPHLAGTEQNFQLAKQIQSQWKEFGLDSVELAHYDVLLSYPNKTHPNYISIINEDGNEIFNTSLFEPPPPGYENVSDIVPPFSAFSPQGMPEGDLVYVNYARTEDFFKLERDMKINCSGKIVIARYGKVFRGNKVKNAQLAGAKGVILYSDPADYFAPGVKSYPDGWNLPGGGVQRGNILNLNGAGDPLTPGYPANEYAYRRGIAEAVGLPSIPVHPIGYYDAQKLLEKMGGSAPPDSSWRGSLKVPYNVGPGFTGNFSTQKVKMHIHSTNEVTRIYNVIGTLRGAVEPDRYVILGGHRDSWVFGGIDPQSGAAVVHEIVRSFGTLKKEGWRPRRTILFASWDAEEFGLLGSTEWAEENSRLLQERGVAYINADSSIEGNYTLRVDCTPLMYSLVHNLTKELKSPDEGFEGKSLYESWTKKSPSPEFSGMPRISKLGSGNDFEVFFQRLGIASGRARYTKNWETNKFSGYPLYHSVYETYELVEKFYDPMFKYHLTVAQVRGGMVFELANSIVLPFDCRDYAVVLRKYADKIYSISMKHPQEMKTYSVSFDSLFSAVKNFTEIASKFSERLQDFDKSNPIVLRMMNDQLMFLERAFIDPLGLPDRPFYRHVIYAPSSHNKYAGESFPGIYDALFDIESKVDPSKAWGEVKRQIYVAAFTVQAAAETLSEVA

On to `O=C(O)CC[C@H](NC(=O)N[C@@H](CCCCNC(=O)CCCCCCC(=O)NC(CCCCn1cc(C(=O)NCCCCC(NC(=O)c2cn(CCCCC(NC(=O)CCCCCCC(=O)NCCCC[C@H](NC(=O)N[C@@H](CCC(=O)O)C(=O)O)C(=O)O)C(=O)O)nn2)C(=O)NC(CCCCNC(=O)CN2CCN(CC(=O)O)CCN(CC(=O)O)CCN(CC(=O)O)CC2)C(=O)O)nn1)C(=O)O)C(=O)O)C(=O)O.[111In+3]` (stereo partly shown) [[^111In]3], for which the “radiotracer uptake on SPECT-CT” value in series [1] is “Intense radiotracer uptake was seen only in the PSMA+PIP tumors and in the kidneys”.

At PSMA, `NCCCCC(NC(=O)C(CCCCNC(=O)c1cn(CCCCC(NC(=O)CCCCCCC(=O)NCCCC[C@H](NC(=O)NC(CCC(=O)O)C(=O)O)C(=O)O)C(=O)O)nn1)NC(=O)c1nn[nH]c1CCCCC(NC(=O)CCCCCCC(=O)NCCCC[C@H](NC(=O)NC(CCC(=O)O)C(=O)O)C(=O)O)C(=O)O)C(=O)O` (stereo partly drawn) [Compound 2, (7S)-26-(4-((1-((5-amino-1-carboxypenty 1)amino)-1-oxo-6-(1-((7S)-1,3,7,22-tetracarboxy-5,13,20-trioxo-4,6,12,21-tetraazahexacosan-26-yl) 1H-1,2,3-triazole-4-carboxamido)hexan-2-yl)carbamoyl)-1H-1,2,3-triazol-5-yl)-5,13,20-trioxo-4,6,12,21-tetraazahexacosane-1,3,7,22-tetracarboxylic acid] showed an inhibition constant (Ki) of 0.1 nM. Also, the “increase in binding affinity (Ki) compared to monovalent 1” value on PSMA (relative to compound 1) is on record as 5 fold.

Compound `O=C(O)CCC(NC(=O)N[C@@H](CCCCNC(=O)CCCCCCC(=O)NC(CCCCc1[nH]nnc1C(=O)NC(CCCCNC(=O)c1cn(CCCCC(NC(=O)CCCCCCC(=O)NCCCC[C@H](NC(=O)NC(CCC(=O)O)C(=O)O)C(=O)O)C(=O)O)nn1)C(=O)NC(CCCCNC(=O)CN1CCN(CC(=O)O)CCN(CC(=O)O)CCN(CC(=O)O)CC1)C(=O)O)C(=O)O)C(=O)O)C(=O)O` (stereo partly drawn) [Compound 3, (7S)-26-(4-((1-((1-carboxy-5-(2-(4,7,10-tris(carboxymethyl)-1,4,7,10-tetraazacyclododecan-1-yl)acetamido)pentyl)amino)-1-oxo-6-(1-((7 S)-1,3,7,22-tetracarboxy-5,13,20-trioxo-4,6,12,21-tetraazahexacosan-26-yl)-1H-1,2,3-triazole-4-carboxamido)hexan-2-yl)carbamoyl)-1H-1,2,3-triazol-5-yl)-5,13,20-trioxo-4,6,12,21-tetraazahexacosane-1,3,7,22-tetracarboxylic acid] had a Ki at PSMA of 0.08 nM.

The record behind these values is patent publication US10653806B2, “Homomultivalent and heteromultivalent inhibitors of prostate specific membrane antigen (PSMA) and uses thereof” (THE JOHNS HOPKINS UNIVERSITY, priority 2011, dated 2020).
